SMILES strings stand for the structures.

The subject of this assay is CYP76AH4. Briefly: in vitro hydroxylation assay of recombinant enzyme, GC-MS. Type of assay: cell-based, Salvia rosmarinus. Conditions: C12-hydroxylation to ferruginol; enzyme preparation not described in main text.

The Km is the concentration of substrate that gives half-maximal velocity. As for `CC(C)c1ccc2c(c1)CC[C@H]1C(C)(C)CCC[C@]21C` [compound 3, abietatriene], the Km worked out at 25 ± 6 µM.

The values above are taken from publication PMC3922537 (Organic & biomolecular chemistry, 2013).
